In paper PMC4583475, “Receptor Polymorphism and Genomic Structure Interact to Shape Bitter Taste Perception” (PLoS Genetics, 2015):
Values belong to the compound of their own block, whether it stands above or below them.

Experiments:
[1] = system: bitter taste perception of 48 Caucasian subjects; assay: Human psychophysical bitter taste tests (4-AFC recognition thresholds, gLMS intensity ratings); format: in vivo; conditions: for recognition threshold, fold range across subjects: 48 human subjects
Experimental: All were pre-screened to avoid inclusion of individuals with health problems and overt taste pathologies; pregnant and breast-feeding women were also excluded. Each subject participated in the entire course of the study, which included one training session and nine experimental sessions. Visits consisted of DNA collection and psychophysical tests for genotyping and phenotypic analyses, respectively. General taste abilities were also assessed for the bitter, salty, sour, and sweet taste during the first session.
Experiments were conducted at the sensory analysis laboratory of the German Institute of Human Nutrition Potsdam-Rehbruecke, according to good practice guidelines. […] Perceived bitter taste intensities were rated on the general Labelled Magnitude Scale (gLMS; [72–74]). […] For each 4-AFC test, four coded samples containing 10 ml solution were presented simultaneously; one containing the bitter tastant diluted in mineral water (Evian; Danone, Paris, France) and three containing mineral water only. At each concentration, subjects were challenged to identify the different sample, specify whether the quoted sample tasted bitter, and rate the perceived bitter intensity. Tests were performed with nose clips and oral rinsing, with a 45 s pause between concentrations. Training sessions were first used to familiarize subjects with the experimental procedures, and secondly, to assess general taste abilities. Concentration series consisted of geometric sequences of […], with a 1.5 common ratio and the following concentration ranges: 3.5x10^-5–2.0x10^-3M, 6.9x10^-4–4.0x10^-2 M, 2.6x10^-4–1.5x10^-2 M, 6.9x10^-4–4.0x10^-2 M, for salicin, sodium chloride, citric acid, and sucrose used as reference tastants for bitter, salty, sour, and sweet taste, respectively. Following training, subjects tested each tastant in triplicate over nine sessions. Latin square designs extended for first-order carry-over effects were used to counterbalance presentation order of the test compounds over the test sessions, across subjects and for each test compound, as well as presentation order of the samples at each concentration across both repetitions and subjects. Sensory sessions were monitored and data automatically collected (Fizz; Biosystèmes, Couternon, France).
Detection and recognition probabilities of the bitter samples were analysed per repetition and subject. Relationships between probabilities (detection or recognition probabilities) and concentrations were fitted by a logistic regression model using the maximum-likelihood method. Threshold value and slope of the logistic curves were then obtained per repetition and subject, using a self-implemented toolbox (Matlab; The MathWorks Inc.). […] Where required, outliers were discarded according to the Peirce’s criterion. Perceived intensities, expressed in percentage of the scale length, were analysed similarly.

TAS2R30-H1 = assay: Calcium imaging in HEK 293T Gα16gust44 cells transfected with TAS2R30-H1; format: cell-based, human
Description: (§1) Allelic responses to agonists were quantified using in vitro heterologous expression assays designed in previous studies of TAS2R receptor function, which successfully mimic responses in vivo with respect to both magnitude and concentration range [17, 23, 25, 26, 46]. DNA fragments containing TAS2R coding sequences were first amplified from genomic DNA by PCR using a proofreading polymerase (PfuUltra II Fusion HotStart DNA Polymerase; Agilent Technologies, Santa Clara, CA, USA) and cloned into a plasmid vector according to the manufacturer’s protocol (Zero Blunt TOPO PCR Cloning Kit; Life Technologies). A second PCR was performed using specific cloning primers to facilitate subcloning into the expression vector, which was then modified to add an N-terminal signal for cell surface localisation and a C-terminal epitope for immunocytochemical detection to the receptor sequence (Fast Link DNA Ligation Kit; Epicentre, Illumina Inc., Madison, WI, USA) (pcDNA5/FRT Mammalian Expression Vector; Life Technologies). Empty vector was used as a negative control.
(§2) Functional assays were carried out in HEK 293T cells stably expressing the G protein chimera Gα16gust44 and transiently transfected with TAS2R alleles subcloned into the expression vector [78]. Calcium imaging was performed using an automated fluorometric imaging plate reader by exposing transfected cells to test compounds dissolved in assay buffer or to assay buffer alone (FLIPR Tetra; Molecular Devices, LLC, Sunnyvale, CA, USA). Changes in cytosolic calcium levels were monitored by measuring fluorescence intensity of a calcium-sensitive dye previously added (Fluo-4 AM; Life Technologies). Six replicates were carried out for each bitter stimulus, on separate experimental days, with each replicate consisting of concentration series of each bitter tastant.
(§3) Prior to final analysis, fluorescence data from functional assays, expressed in relative fluorescence units (RFU), underwent three corrections. First, a correction calculated from baseline values was applied to compensate for well-to-well fluctuations. A second correction calculated from negative control values was applied to correct for receptor independent artefacts and signal drift. A third correction calculated from positive control values was applied to facilitate comparison of data obtained from different experimental days. Fluorescence ratios ((F-F0)/F0), obtained by subtracting the background fluorescence from fluorescence peak height and then dividing the difference by the background fluorescence, were then used for data analysis. Variance analyses were performed, followed by Bonferroni multiple comparisons tests (SPSS 20; IBM Corporation, Armonk, NY, USA). Threshold response values were then defined as the first concentration eliciting a significant activation of the receptor, with empty vector acting as a negative control. Finally, dose-response curves were fitted to the Hill equation by nonlinear regression in order to determine half maximal effective concentrations (EC50) and maximal amplitude (SigmaPlot; Systat Software Inc., Chicago, IL, USA).

TAS2R46-H1 = molecular target: T1, TAS2R46-H1 (Homo sapiens, UniProt P59540); assay: Calcium imaging in HEK 293T Gα16gust44 cells transfected with TAS2R46-H1; format: cell-based
T1 construct: N-terminal signal for cell surface localisation (N); expressed in transfected cells; host or cells: HEK 293T cells stably expressing the G protein chimera Gα16gust44
T1 sequence (P59540 1-309): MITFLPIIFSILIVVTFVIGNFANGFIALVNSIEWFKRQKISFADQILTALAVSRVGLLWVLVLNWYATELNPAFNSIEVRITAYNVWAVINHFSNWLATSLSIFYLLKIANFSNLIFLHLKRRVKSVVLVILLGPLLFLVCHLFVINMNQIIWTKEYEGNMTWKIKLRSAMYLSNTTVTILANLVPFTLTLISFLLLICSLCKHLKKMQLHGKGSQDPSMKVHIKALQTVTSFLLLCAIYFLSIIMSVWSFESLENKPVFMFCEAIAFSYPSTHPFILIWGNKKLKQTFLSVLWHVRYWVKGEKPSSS
Description: as §1, §2, §3

TAS2R46-H2 = molecular target: T2, TAS2R46-H2 (Homo sapiens, UniProt P59540); assay: Calcium imaging in HEK 293T Gα16gust44 cells transfected with TAS2R46-H2; format: cell-based; conditions: TAS2R46-H2, truncated variant (premature stop codon)
T2 construct: TAS2R46-H2, a truncated, six-transmembrane variant of the receptor; N-terminal signal for cell surface localisation (N); expressed in transfected cells; host or cells: HEK 293T cells stably expressing the G protein chimera Gα16gust44
T2 sequence (P59540 1-249 limits assumed): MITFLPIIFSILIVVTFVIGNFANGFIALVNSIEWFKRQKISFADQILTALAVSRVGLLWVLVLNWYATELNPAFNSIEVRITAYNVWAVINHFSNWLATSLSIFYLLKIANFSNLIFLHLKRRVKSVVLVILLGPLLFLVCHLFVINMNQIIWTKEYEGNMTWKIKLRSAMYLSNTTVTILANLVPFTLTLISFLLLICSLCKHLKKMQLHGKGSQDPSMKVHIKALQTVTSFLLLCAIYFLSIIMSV
Description: as §1, §2, §3

TAS2R46-H3 = assay: Calcium imaging in HEK 293T Gα16gust44 cells transfected with TAS2R46-H3; format: cell-based, human
Description: as §1, §2, §3

[2] = system: TAS2R30, -31, -43, and -46; assay: Calcium imaging functional assays, statements across TAS2R loci (variants not resolved); format: cell-based, human
Description: as §1
as §2, with “Six replicates were carried out for each bitter stimulus, on separate experimental days, with each replicate consisting of concentration series of each bitter tastant.” left out
Prior to final analysis, fluorescence data from functional assays, expressed in relative fluorescence units (RFU), underwent three corrections. First, a correction calculated from baseline values was applied to compensate for well-to-well fluctuations. A second correction calculated from negative control values was applied to correct for receptor independent artefacts and signal drift. […]

TAS2R43-H1 = assay: Calcium imaging in HEK 293T Gα16gust44 cells transfected with TAS2R43-H1; format: cell-based, human
Description: as §1, §2
as §3, with “Threshold response values were then defined as the first concentration eliciting a significant activation of the receptor, with empty vector acting as a negative control. Finally, dose-response curves were fitted to the Hill equation by nonlinear regression in order to determine half maximal effective concentrations (EC50) and maximal amplitude (SigmaPlot; Systat Software Inc., Chicago, IL, USA).” left out

TAS2R43-H2 = assay: Calcium imaging in HEK 293T Gα16gust44 cells transfected with TAS2R43-H2; format: cell-based, human
Description: as §1, §2
as §3, with “Threshold response values were then defined as the first concentration eliciting a significant activation of the receptor, with empty vector acting as a negative control. Finally, dose-response curves were fitted to the Hill equation by nonlinear regression in order to determine half maximal effective concentrations (EC50) and maximal amplitude (SigmaPlot; Systat Software Inc., Chicago, IL, USA).” left out

[3] = system: every known TAS2R in humans; set-up: method as in PMID 20022913; conditions: complete TAS2R family; cited from earlier work
TAS2R30-H2 = assay: Calcium imaging in HEK 293T Gα16gust44 cells transfected with TAS2R30-H2; format: cell-based, human
Description: as §1, §2, §3

[4] = first concentration eliciting significant receptor activation

receptor variant response (TAS2R46-H1): most sensitive
receptor variant response (TAS2R46-H2): least sensitive
SMILES: COC1=C[C@@H](C)[C@@H]2C[C@H]3OC(=O)C[C@H]4C(C)=C(OC)C(=O)[C@H]([C@@]2(C)C1=O)[C@@]34C [quassin]
recognition threshold, fold range across subjects [1]: 38 fold
concentration perceived as strongly bitter, fold range across subjects ([1]; gLMS strong intensity): 8 fold
concentration perceived as weakly bitter, fold range across subjects ([1]; gLMS weak intensity): 26 fold
receptor variant response (TAS2R30-H1): responding in ranges matching phenotypic recognition threshold
receptor variant response (TAS2R46-H3): intermediate
TAS2Rs activated in vitro [2]: only TAS2R30 and TAS2R46

EC50 (TAS2R43-H1): 16 µM
EC50 (TAS2R43-H2): 6.9 µM
EC50 (TAS2R46-H1): 5.6 µM
maximum amplitude (TAS2R46-H1): 0.87 ΔF/F
threshold (TAS2R46-H1; [4]): 1000 nM
receptor variant response (TAS2R46-H2): not activated at any concentration
EC50 (TAS2R46-H3): 7.6 µM
SMILES: C=C1C(=O)O[C@H]2[C@H]1[C@@H](O)CC(=C)[C@@H]1CC(=O)[C@@H](C)[C@H]21 [grosheimin]
recognition threshold, fold range across subjects [1]: 25 fold
concentration perceived as strongly bitter, fold range across subjects ([1]; gLMS strong intensity): 5 fold
concentration perceived as strongly bitter, mode ([1]; gLMS strong intensity): 33 µM
concentration perceived as weakly bitter, fold range across subjects ([1]; gLMS weak intensity): 17 fold
concentration perceived as weakly bitter, mode ([1]; gLMS weak intensity): 15 µM
maximum amplitude (TAS2R43-H1): 0.60 ΔF/F
threshold (TAS2R43-H1; [4]): 10 µM
maximum amplitude (TAS2R43-H2): 0.81 ΔF/F
threshold (TAS2R43-H2; [4]): 3 µM
maximum amplitude (TAS2R46-H3): 0.50 ΔF/F
threshold (TAS2R46-H3; [4]): 3 µM
TAS2Rs responsive in published receptor-agonist inventory [3]: only TAS2R43 and -46

receptor variant response (TAS2R46-H1): sensitive
receptor variant response (TAS2R46-H2): insensitive
SMILES: CC(=O)O[C@@H]1C[C@]2(C)[C@H](CC[C@@H](O)[C@]2(C)O)[C@@](C=O)(C[C@@H](O)c2ccoc2)[C@@H]1C [cascarillin]
recognition threshold, fold range across subjects [1]: 17 fold
concentration perceived as weakly bitter, fold range across subjects ([1]; gLMS weak intensity): 11 fold
receptor variant response (TAS2R30-H1): sensitive
receptor variant response (TAS2R30-H2): insensitive
receptor variant response (TAS2R46-H3): intermediate
minimum concentration required to elicit response in functional assays ([2]; TAS2R30 and -46 variants): 30 µM
